According to ChEMBL document CHEMBL3507680, “University of Dundee, Gates Library screen for HepG2 cell viability”:

assay: Human HepG2 cell viability assay in 384 well format; type: toxicity, cell-based; parameters: dose 125 nL, time 70.5 hour; concentration not given beside the values; conditions: HepG2 cells, read-out: Inhibition

| Structure (SMILES) | cytotoxicity at 70.5 h [%] |
| --- | --- |
| CC(C)c1cc(NC(=O)CN2CCC(C(N)=O)CC2)on1 | -6.12 |
| COCC1CCN(C(=O)c2cn(Cc3ccccc3C(F)(F)F)nn2)C1 (centres undefined) | -21.7 |
| O=C(Nc1ccc(Cl)cn1)c1nn(C2CCS(=O)(=O)C2)c2c1CCCC2 (centres undefined) | -23 |
| Cc1ccc(CN2C[C@@H]3C[C@H](C(=O)NCC4CC4)N(C)[C@@H]3C2)o1 | 10.1 |
| O=C(c1csc(-c2ncccn2)n1)N1CCCC1Cn1cccn1 (centres undefined) | 22.5 |
| COc1ccc(CC(=O)N2CCCC(n3cc(C)cn3)C2)cc1F (centres undefined) | -2.2 |
| Cc1cc(C(C)NC(=O)CCn2nnc3ccccc3c2=O)c(C)o1 (centres undefined) | -5.41 |
| O=C(NCc1ccccn1)[C@]12COC[C@H]1CN(C1CCC1)C2 | -10.3 |
| COc1ncc(CN2CCCC2c2[nH]ncc2C(=O)N(C)C)cn1 (centres undefined) | 23.2 |
| CN1CCN(Cc2cn3c(n2)CN(Cc2cccc(F)c2)CC3)CC1 | -11.9 |
| COC(=O)N1C[C@H]2CC[C@@H]1CN(Cc1cscn1)C2 | 1.18 |
| COC(=O)CCn1ccc(=O)c2cc(F)ccc21 | -8.87 |
| Cc1cc(-c2cnc(N3CCNC(=O)C3)nc2-c2sccc2C)on1 | -6.64 |
| CC(Cn1ccnc1)NC(=O)NCc1cccnc1OC1CCCC1 (centres undefined) | -8.81 |
| CNc1cc(C)nc(NC2CCCN(C3Cc4ccccc4C3)C2)n1 (centres undefined) | 28.6 |
| COc1ccc(-c2nccc(C3CCCN3C)n2)cc1 (centres undefined) | -2.22 |
| CC(=O)N1CCC2(CC1)C(=O)N(c1ccc(C)nc1)CCN2CC(C)C | -4.45 |
| CC(C)NC(=O)C1CN(Cc2ccc(F)cc2)CC12CCOCC2 (centres undefined) | -10.5 |
| CN1CCOCC2(CCCN(C(=O)c3cnccn3)C2)C1 (centres undefined) | 0.574 |
| CC(C)S(=O)(=O)C(C)C(=O)NCc1cccc(N2CCCCC2=O)c1 (centres undefined) | 13.6 |
| CCCC1(CO)CCCN(C(=O)CNC(N)=O)C1 (centres undefined) | -28.7 |
| CCC(C#N)NC(=O)CCNC(=O)C(C)(C)C (centres undefined) | 0.625 |

| Structure (SMILES) | cytotoxicity at 70.5 h [%] |
| --- | --- |
| COCCC(=O)N1C[C@@H](c2ccc(F)c(F)c2)[C@@]2(CCCC(=O)N2)C1 | -1.65 |
| CCc1noc(C)c1C(=O)N1CCC2(CCCN(CC(C)(C)C)C2=O)C1 (centres undefined) | -5.92 |
| CC1=Nc2c(c(O)nn2C(C)C)C(c2cnn(C)c2)S1 (centres undefined) | -11 |
| Cc1ccc2nc(-c3cnc(N)nc3)cc(C(=O)N(C)C)c2c1 | 1.63 |
| CCC(=O)N1CCN(C(=O)NCCOc2ccc3c(c2)CCC3)CC1 | -8.5 |
| Cc1ccc(OCc2occc2C(=O)N2C[C@@H]3[C@@H](CN(C)C)[C@@H]3C2)cc1 | -9.55 |
| O=c1c(CN2CC3CCCN3C[C@@H]2CCO)coc2ccc(Cl)cc12 (some centres undefined) | -6.6 |
| N#CCCN(Cc1ccco1)C(=O)COC1CCCCC1 | 21.5 |
| CS(=O)(=O)N1CCCCCC1c1cc(-c2ccc(F)cc2)no1 (centres undefined) | 5.67 |
| CN(C)C(=O)NC[C@@H]1OC[C@H]2CN(Cc3cccc(F)c3)CC[C@H]21 | -6.1 |
| Cc1cc(CNc2cncc(C(=O)N(C)C)n2)c2[nH]c(C)c(C)c2c1 | 27.8 |
| CC(C)NC(=O)Nc1ccc(CS(C)(=O)=O)cc1 | -0.657 |
| CCN1CCC2(CCN(c3ncccn3)CC2)C1=O | -8.88 |
| Cc1cc(C)cc(CNCCS(=O)(=O)N2CCOCC2)c1 | 33.6 |
| COc1ccccc1CC(=O)N1CCCC1Cn1nc(C)cc1C (centres undefined) | -2.44 |
| Cc1ncc2c(n1)CN(CC(=O)Nc1ccncc1)CC2 | 1.41 |
| CCCC(=O)N1CCCC1(C)c1nc(C)no1 (centres undefined) | -14.9 |
| COc1ccccc1CN1CCCCC1c1n[nH]cc1-c1cc(C)no1 (centres undefined) | -6.18 |
| CC1=N[C@@]2(CC[C@@H]3CN(Cc4ccc(C)cc4)C[C@@H]32)C(=O)N1CC1CC1 | -12.4 |
| CCOc1ncccc1CNC(=O)NCC(O)c1ccccc1OC (centres undefined) | -1.39 |
| CC(O)CN1CCN(C(=O)c2cccc3[nH]ncc23)CC1 (centres undefined) | -3.67 |
| CCCc1nnc(NC2CCN(CCO)CC2)o1 | -6.74 |
